Laboratory results reported in patent US12102658B2, “Tripeptide propylene oxide derivative and preparation method and application thereof” (SHENZHEN JIKANG PHARMACEUTICAL TECHNOLOGY CO., LTD, priority 2019, dated 2024).
Read-outs that look alike come from different tables or passages of the source.

How the values were obtained:
U266B1 = test: Cell strain inhibition activity (Promega single solution cell proliferation test kit), U266; type: cell-based; conditions: Homo sapiens, U-266; U266B1 cells, 24 h incubation with drug; read-out: IC50 concentration (nM) of the drugs to cytotoxicity, U266B1
Protocol: (§1) The test solution used in the present invention is a single solution cell proliferation test kit from Promega company; and the cells used are U266 and RPMI8226. The experimental system is 110 μL, containing 90 μL of cell suspension, 10 μL of test solution, and 10 μL of drug (inhibitor). The final concentration is 4.54×10^−8 M-1.77×10^−9 M, the last concentration is 0 M, the actual preparation concentration is 5×10^−7 M-1.95×10^−8 M, and the last concentration is 0 M. The specific experiment process is as follows:
(§2) After the cells are counted separately, dilution and preparation are performed so that the number of U266 is 1×10^4 cells/well, and the number of RPMI8226 is 1×10^4 cells/well.
(§3) 90 μL of cell suspension is added to each well of a 96-well fluorescence microplate, and incubated for 24 h. […] After the reaction is complete, 10 μL of test solution is added to each well and incubation is performed for 2-3 h. The absorbance is tested with a 490 nm fluorescence microplate reader (BMG LABTECH POLARstar OPTIMA Microplate Reader).
(§4) The absorbances of the products obtained under the action of the drugs of different concentrations after subtracting the substrate are calculated. The IC50 concentration (nM) of the drugs to cytotoxicity is calculated by the GraphPad Prism software.

[1] = molecular target: T1, human red blood cell 20S proteasome (Homo sapiens, UniProt P28074); test: Proteasome inhibition activity (chymotrypsin-like activity, Suc-LLVY-AMC fluorescent substrate); type: biochemical; conditions: Suc-LLVY-AMC 50 μM, 37° C.
T1 construct: human red blood cell 20S proteasome; purchased Enzo; host or cells: purified from human red blood cells
Protocol: The present invention uses a fluorescent polypeptide substrate Suc-Leu-Leu-Val-Tyr-AMC (abbreviated as Suc-LLVY-AMC, Suc stands for succinyl group, AMC stands for 7-amide-4-methylcoumarin) to determine the chymotrypsin-like enzyme activity of the proteasome.
The proteasome used in the present invention is human red blood cell 20S proteasome, and the enzymes, fluorescent substrates and test buffers are all purchased from Enzo company. […]
The 20S proteasome is diluted with a buffer solution to a concentration of 2 ng/μL from 8 ng/μL, and the diluted proteasome solution is added to a 384-well fluorescence microplate, 4 μL each. […] A 360 nm/460 nm fluorescence microplate reader (BMG LABTECH POLARstar OPTIMA Microplate Reader) is used to test the fluorescence value.
The fluorescence values of the products obtained under the action of the drugs of different concentrations after subtracting the substrate are calculated. The IC50 concentration of the drug to inhibit the proteasome is calculated by the GraphPad Prism software.

RPMI8226 = test: Cell strain inhibition activity (Promega single solution cell proliferation test kit), RPMI8226; type: cell-based; conditions: Homo sapiens, RPMI-8226; RPMI8226 cells, 24 h incubation with drug; read-out: IC50 concentration (nM) of the drugs to cytotoxicity, RPMI8226
Protocol: as §1, §2, §3, §4

[2] = Primary cytotoxicity, monocytes from healthy volunteers; type: cell-based; conditions: human, primary blood monocytes from a healthy volunteer, 24 h incubation with drug
Protocol: (§5) In the present invention, blood cells from patients with multiple myeloma and blood cells from healthy volunteers are used to test the toxicity of candidate compounds. The test solution is a single solution cell proliferation test kit from Promega company. The cells used are CD138+ cells selected from the patients with multiple myeloma and monocytes from the blood of the healthy volunteers. The experimental system is 110 μL, containing 90 μL of cell suspension, 10 μL of test solution, and 10 μL of drug (inhibitor). The final concentration is 4.54×10^−8 M 1.77×10^−9 M, the last concentration is 0 M, the actual preparation concentration is 5×10^−7 M-1.95×10^−8 M, and the last concentration is 0 M. The specific experiment process is as follows:
(§6) After the cells are counted separately, dilution and preparation are performed so that the number of CD138+ cells is 1×10^4 cells/well, and the number of monocytes is 1×10^4 cells/well.
as §3, §4

[3] = tested on: CD138+ cells selected from the patients with multiple myeloma; test: Primary cytotoxicity, CD138+ cells from patients with multiple myeloma; type: cell-based; conditions: Homo sapiens
Protocol: as §5, §6, §3, §4

[4] = Healthy volunteer 3 (first line, r4), read-out: IC50 concentration (nM) of the drugs to cytotoxicity, Healthy volunteer 3
[5] = Healthy volunteer 3 (second line, r5), read-out: IC50 concentration (nM) of the drugs to cytotoxicity, Healthy volunteer 3 (second line)
[6] = Patient 1, 24 h incubation with drug, read-out: IC50 concentration (nM) of the drugs to cytotoxicity, Patient 1
[7] = Patient 2, 24 h incubation with drug, read-out: IC50 concentration (nM) of the drugs to cytotoxicity, Patient 2

melting point [°C]	SMILES	also measured
50.7 to 52.3	COC[C@H](NC(=O)c1cc(Cl)ccc1Cl)C(=O)N[C@H](CSC)C(=O)N[C@@H](Cc1ccccc1)C(=O)[C@@]1(C)CO1 [Compound 33, N-2,5-dichlorophenyl-2-formyl-O-methyl-L-seryl-S-methyl-L-cysteinyl-L-phenylalanyl-methyloxirane]	–
46.1 to 47.6	COC[C@H](NC(=O)c1cnccn1)C(=O)N[C@H](CSC)C(=O)N[C@@H](Cc1ccccc1)C(=O)[C@@]1(C)CO1 [Compound 35, N-pyrazinyl-2-formyl-O-methyl-L-seryl-S-methyl-L-cysteinyl-L-phenylalanyl-methyloxirane]	–
59.8 to 60.3	COC[C@H](NC(=O)[C@@H](CSC)NC(=O)c1cc(Cl)ccc1Cl)C(=O)N[C@@H](CC(C)C)C(=O)[C@@]1(C)CO1 [Compound 36, N-2,5-dichlorophenyl-2-formyl-S-methyl-L-cysteinyl-O-methyl-L-seryl-L-leucyl-methyloxirane]	–
49.5 to 51.8	COC[C@H](NC(=O)[C@@H](CSC)NC(=O)c1cc(C)on1)C(=O)N[C@@H](CC(C)C)C(=O)[C@@]1(C)CO1 [Compound 37, N-5-methylisoxazolyl-3-formyl-S-methyl-L-cysteinyl-O-methyl-L-seryl-L-leucyl-methyloxirane]	–
51.2 to 52.7	COC[C@H](NC(=O)[C@@H](CSC)NC(=O)c1cc(Cl)ccc1Cl)C(=O)N[C@@H](Cc1ccccc1)C(=O)[C@@]1(C)CO1 [Compound 39, N-2,5-dichlorophenyl-2-formyl-S-methyl-L-cysteinyl-O-methyl-L-seryl-L-phenylalanyl-methyloxirane]	–
49.7 to 51.2	COC[C@H](NC(=O)[C@@H](CSC)NC(=O)c1cnccn1)C(=O)N[C@@H](Cc1ccccc1)C(=O)[C@@]1(C)CO1 [Compound 41, N-pyrazinyl-2-formyl-S-methyl-L-cysteinyl-O-methyl-L-seryl-L-phenylalanyl-methyloxirane]	IC50 (RPMI8226): 55.3 nM; IC50 (U266B1): 160 nM
163.1 to 164.5	CSC[C@@H](NC(=O)c1cc(Cl)ccc1Cl)C(=O)N[C@H](CSC)C(=O)N[C@@H](CC(C)C)C(=O)[C@@]1(C)CO1 [Compound 42, N-2,5-dichlorophenyl-2-formyl-S-methyl-L-cysteinyl-S-methyl-L-cysteinyl-L-leucyl-methyloxirane]	–
150 to 151	CSC[C@@H](NC(=O)c1cc(Cl)ccc1Cl)C(=O)N[C@H](CSC)C(=O)N[C@@H](Cc1ccccc1)C(=O)[C@@]1(C)CO1 [Compound 46, N-2,5-dichlorophenyl-2-formyl-S-methyl-L-cysteinyl-S-methyl-L-cysteinyl-L-phenylalanyl-methyloxirane]	–
149 to 150	CSC[C@@H](NC(=O)c1cc(C)on1)C(=O)N[C@H](CSC)C(=O)N[C@@H](Cc1ccccc1)C(=O)[C@@]1(C)CO1 [Compound 47, N-5-methylisoxazolyl-3-formyl-S-methyl-L-cysteinyl-S-methyl-L-cysteinyl-L-phenylalanyl-methyloxirane]	–
73 to 74	CSC[C@@H](NC(=O)c1cnc(C)s1)C(=O)N[C@H](CSC)C(=O)N[C@@H](Cc1ccccc1)C(=O)[C@@]1(C)CO1 [Compound 49, N-2-methylthiazolyl-5-formyl-S-methyl-L-cysteinyl-S-methyl-L-cysteinyl-L-phenylalanyl-methyloxirane]	–
54 to 55	COC[C@H](NC(=O)c1cc(C)on1)C(=O)NCC(=O)N[C@@H](Cc1ccccc1)C(=O)[C@@]1(C)CO1 [Compound 51, N-5-methylisoxazolyl-3-formyl-O-methyl-L-seryl-glycyl-L-phenylalanyl-methyloxirane]	IC50 [3, 6]: 36 nM; IC50 [3, 7]: 52.6 nM

The remaining lines, values behind:

SMILES	melting point [°C]	also measured
COC[C@H](NC(=O)c1cc(C)on1)C(=O)N[C@H](CSC)C(=O)N[C@@H](CC(C)C)C(=O)[C@@]1(C)CO1 [Compound 31, N-5-methylisoxazolyl-3-formyl-O-methyl-L-seryl-S-methyl-L-cysteinyl-L-leucyl-methyloxirane]	70.2 to 72.7	–
COC[C@H](NC(=O)c1cnccn1)C(=O)N[C@H](CSC)C(=O)N[C@@H](CC(C)C)C(=O)[C@@]1(C)CO1 [Compound 32, N-pyrazinyl-2-formyl-O-methyl-L-seryl-S-methyl-L-cysteinyl-L-leucyl-methyloxirane]	50 to 51	IC50 (U266B1): 13700 nM
COC[C@H](NC(=O)[C@@H](CSC)NC(=O)c1cnccn1)C(=O)N[C@@H](CC(C)C)C(=O)[C@@]1(C)CO1 [Compound 38, N-pyrazinyl-2-formyl-S-methyl-L-cysteinyl-O-methyl-L-seryl-L-leucyl-methyloxirane]	59.6 to 61.2	IC50 [1]: > 2000 nM
CSC[C@@H](NC(=O)c1cnc(C)s1)C(=O)N[C@H](CSC)C(=O)N[C@@H](CC(C)C)C(=O)[C@@]1(C)CO1 [Compound 45, N-2-methylthiazolyl-5-formyl-S-methyl-L-cysteinyl-S-methyl-L-cysteinyl-L-leucyl-methyloxirane]	150 to 151	–
CSC[C@@H](NC(=O)c1cnccn1)C(=O)N[C@H](CSC)C(=O)N[C@@H](Cc1ccccc1)C(=O)[C@@]1(C)CO1 [Compound 48, N-pyrazinyl-2-formyl-S-methyl-L-cysteinyl-S-methyl-L-cysteinyl-L-phenylalanyl-methyloxirane]	–	IC50 [1]: > 2000 nM
COC[C@H](NC(=O)c1cc(C)on1)C(=O)NCC(=O)N[C@@H](CC(C)C)C(=O)[C@@]1(C)CO1 [Compound 50, N-5-methylisoxazolyl-3-formyl-O-methyl-L-seryl-glycyl-L-leucyl-methyloxirane]	47.7 to 49.1	IC50 at 24 h [2, 4]: > 2000 nM; IC50 at 24 h [2, 5]: > 2000 nM; IC50 [3, 6]: 10 nM; IC50 [3, 7]: 11 nM
COC[C@H](NC(=O)CNC(=O)c1cc(C)on1)C(=O)N[C@@H](CC(C)C)C(=O)[C@@]1(C)CO1 [Compound 52, N-5-methylisoxazolyl-3-formyl-glycyl-O-methyl-L-seryl-L-leucyl-methyloxirane]	–	IC50 (RPMI8226): > 100 nM
CSC[C@@H](NC(=O)c1cc(C)on1)C(=O)NCC(=O)N[C@@H](CC(C)C)C(=O)[C@@]1(C)CO1 [Compound 54, N-5-methylisoxazolyl-3-formyl-S-methyl-L-cysteinyl-glycyl-L-leucyl-methyloxirane]	58.4 to 59.8	–
CSC[C@@H](NC(=O)c1cnc(C)s1)C(=O)NCC(=O)N[C@@H](CC(C)C)C(=O)[C@@]1(C)CO1 [Compound 56, N-2-methylthiazolyl-5-formyl-S-methyl-L-cysteinyl-glycyl-L-leucyl-methyloxirane]	–	IC50 (RPMI8226): > 100 nM
COC[C@H](NC(=O)c1cnc(C)s1)C(=O)N[C@@H](COC)C(=O)N[C@@H](Cc1ccccc1)C(=O)[C@@]1(C)CO1 [Oprozomib, reference compound]	–	IC50 at 24 h [2, 4]: 598 nM; IC50 at 24 h [2, 5]: 807 nM; IC50 [3, 6]: 53 nM; IC50 [3, 7]: 70.9 nM
